Measured values taken from US8791102B2, “Acetanilide sphingosine-1-phosphate receptor antagonists” (Exelixis, Inc., priority 2008, dated 2014).

Target: T1, human S1P1 receptors (Homo sapiens, UniProt P21453)
T1 construct: host or cells: HEK293
Assay: S1P1R antagonist assay (fluorescent membrane potential dye, cAMP readout)
Assay type: cell-based
Details: HEK293 cells expressing human S1P1 receptors and CNG channel; 500 nM NECA; S1P1R agonist 10 nM; 90 minutes; read-out: EC50 or IC50 value

T1 sequence (P21453 whole entry): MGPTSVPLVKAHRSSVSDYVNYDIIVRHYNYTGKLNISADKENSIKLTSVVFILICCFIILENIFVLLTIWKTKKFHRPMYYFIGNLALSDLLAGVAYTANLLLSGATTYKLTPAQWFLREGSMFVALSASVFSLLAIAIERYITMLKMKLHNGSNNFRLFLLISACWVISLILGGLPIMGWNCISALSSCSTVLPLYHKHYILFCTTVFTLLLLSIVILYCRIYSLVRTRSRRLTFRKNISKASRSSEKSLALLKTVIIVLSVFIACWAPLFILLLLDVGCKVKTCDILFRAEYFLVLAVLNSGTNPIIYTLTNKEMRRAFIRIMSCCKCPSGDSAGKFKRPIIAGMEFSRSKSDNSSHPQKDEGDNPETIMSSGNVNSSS

`O=C(Cc1cnc[nH]1)N[C@@H](Cc1ccccc1)C(=O)Nc1ccc(Oc2ccc(Cl)cc2)cc1` [Compound 204, (S)-2-(2-(1H-imidazol-5-yl)acetamido)-N-(4-(4-chlorophenoxy)phenyl)-3-phenylpropanamide] and `O=C(CCc1cnc[nH]1)N[C@@H](COCc1ccccc1)C(=O)Nc1ccc(Oc2ccc(F)cc2)cc1` [Compound 207, (S)-2-(3-(1H-imidazol-5-yl)propanamido)-3-(benzyloxy)-N-(4-(4-fluorophenoxy)phenyl)propanamide] cannot be ordered by IC50: 300 to 1000 nM for the first, at most 300 nM for the second.

`O=C(CN1CCNCC1)N[C@@H](COCc1ccccc1)C(=O)Nc1ccc(Oc2ccc(F)cc2)cc1` [Compound 205, (S)-3-(benzyloxy)-N-(4-(4-fluorophenoxy)phenyl)-2-(2-(piperazin-1-yl)acetamido)propanamide] and `O=C(CN1CCCC1)N[C@@H](COCc1ccccc1)C(=O)Nc1ccc(Oc2ccc(F)cc2)cc1` [Compound 215, (S)-3-(benzyloxy)-N-(4-(4-fluorophenoxy)phenyl)-2-(2-(pyrrolidin-1-yl)acetamido)propanamide] cannot be ordered by IC50: at most 300 nM for the first, 300 to 1000 nM for the second.

`O=C(Cc1c[nH]cn1)N[C@@H](COCc1ccccc1)C(=O)Nc1ccc(Oc2nccs2)cc1` [Compound 206, (S)-2-(2-(1H-imidazol-4-yl)acetamido)-3-(benzyloxy)-N-(4-(thiazol-2-yloxy)phenyl)propanamide] and `O=C(Cc1c[nH]cn1)N[C@@H](COCc1ccccc1)C(=O)Nc1ccc(OCc2ccccc2)cc1` [Compound 211, (S)-2-(2-(1H-imidazol-4-yl)acetamido)-3-(benzyloxy)-N-(4-(benzyloxy)phenyl)propanamide] cannot be ordered by IC50: 300 to 1000 nM for the first, at most 300 nM for the second.

`O=C(Cc1cnc[nH]1)N[C@@H](COCc1ccccc1)C(=O)Nc1ccc(OC2CCCCC2)cc1` [Compound 208, (S)-2-(2-(1H-imidazol-5-yl)acetamido)-3-(benzyloxy)-N-(4-(cyclohexyloxy)phenyl)propanamide] and `O=C(CN1CCC2CCCCC2C1)N[C@@H](COCc1ccccc1)C(=O)Nc1ccc(Oc2ccc(F)cc2)cc1` (stereo partly drawn) [Compound 222, (2S)-3-(benzyloxy)-N-(4-(4-fluorophenoxy)phenyl)-2-(2-(octahydroisoquinolin-2(1H)-yl)acetamido)propanamide] fall in the same range of IC50: 300 to 1000 nM for the first, 300 to 1000 nM for the second.

`CN(C)CCC(=O)N[C@@H](COCc1ccccc1)C(=O)Nc1ccc(Oc2ccc(Cl)cc2)cc1` [Compound 209, (S)-3-(benzyloxy)-N-(4-(4-chlorophenoxy)phenyl)-2-(3-(dimethylamino)propanamido)propanamide] and `O=C(CN1CC=CC1)N[C@@H](COCc1ccccc1)C(=O)Nc1ccc(Oc2ccc(F)cc2)cc1` [Compound 214, (S)-3-(benzyloxy)-2-(2-(2,5-dihydro-1H-pyrrol-1-yl)acetamido)-N-(4-(4-fluorophenoxy)phenyl)propanamide] cannot be ordered by IC50: 300 to 1000 nM for the first, at most 300 nM for the second.

`O=C(CN1CCOCC1)N[C@@H](COCc1ccc(F)cc1)C(=O)Nc1ccc(Oc2ccc(F)cc2)cc1` [Compound 210, (S)-3-(4-fluorobenzyloxy)-N-(4-(4-fluorophenoxy)phenyl)-2-(2-morpholinoacetamido)propanamide] and `O=C(CN1CCN(c2ccc(F)cc2)CC1)N[C@@H](COCc1ccccc1)C(=O)Nc1ccc(Oc2ccc(F)cc2)cc1` [Compound 218, (S)-3-(benzyloxy)-N-(4-(4-fluorophenoxy)phenyl)-2-(2-(4-(4-fluorophenyl)piperazin-1-yl)acetamido)propanamide] cannot be ordered by IC50: at most 300 nM for the first, 300 to 1000 nM for the second.

`O=C(Cc1c[nH]c2ccc(F)cc12)N[C@@H](COCc1ccccc1)C(=O)Nc1ccc(Oc2ccc(F)cc2)cc1` [Compound 212, (S)-3-(benzyloxy)-2-(2-(5-fluoro-1H-indol-3-yl)acetamido)-N-(4-(4-fluorophenoxy)phenyl)propanamide] and `O=C(CNCCc1c[nH]cn1)N[C@@H](COCc1ccccc1)C(=O)Nc1ccc(Oc2ccc(F)cc2)cc1` [Compound 216, (S)-2-(2-(2-(1H-imidazol-4-yl)ethylamino)acetamido)-3-(benzyloxy)-N-(4-(4-fluorophenoxy)phenyl)propanamide] cannot be ordered by IC50: at most 300 nM for the first, 300 to 1000 nM for the second.

`CC(C)(C(=O)N[C@@H](COCc1ccccc1)C(=O)Nc1ccc(Oc2ccc(F)cc2)cc1)c1c[nH]cn1` [Compound 213, (S)-2-(2-(1H-imidazol-4-yl)-2-methylpropanamido)-3-(benzyloxy)-N-(4-(4-fluorophenoxy)phenyl)propanamide] and `O=C(CN1CCc2ccccc2C1)N[C@@H](COCc1ccccc1)C(=O)Nc1ccc(Oc2ccc(F)cc2)cc1` [Compound 221, (S)-3-(benzyloxy)-2-(2-(3,4-dihydroisoquinolin-2(1H)-yl)acetamido)-N-(4-(4-fluorophenoxy)phenyl)propanamide] cannot be ordered by IC50: at most 300 nM for the first, 300 to 1000 nM for the second.

`COc1ccccc1N1CCN(CC(=O)N[C@@H](COCc2ccccc2)C(=O)Nc2ccc(Oc3ccc(F)cc3)cc2)CC1` [Compound 217, (S)-3-(benzyloxy)-N-(4-(4-fluorophenoxy)phenyl)-2-(2-(4-(2-methoxyphenyl)piperazin-1-yl)acetamido)propanamide] and `O=C(CN1CCN(c2ccccc2)CC1)N[C@@H](COCc1ccccc1)C(=O)Nc1ccc(Oc2ccc(F)cc2)cc1` [Compound 225, (S)-3-(benzyloxy)-N-(4-(4-fluorophenoxy)phenyl)-2-(2-(4-phenylpiperazin-1-yl)acetamido)propanamide] fall in the same range of IC50: 300 to 1000 nM for the first, 300 to 1000 nM for the second.

`O=C(CN1CCC(Cc2ccccc2)CC1)N[C@@H](COCc1ccccc1)C(=O)Nc1ccc(Oc2ccc(F)cc2)cc1` [Compound 220, (S)-3-(benzyloxy)-2-(2-(4-benzylpiperidin-1-yl)acetamido)-N-(4-(4-fluorophenoxy)phenyl)propanamide] and `O=C(CN1CCN(C(=O)c2ccco2)CC1)N[C@@H](COCc1ccccc1)C(=O)Nc1ccc(Oc2ccc(F)cc2)cc1` [Compound 223, (S)-3-(benzyloxy)-N-(4-(4-fluorophenoxy)phenyl)-2-(2-(4-(furan-2-carbonyl)piperazin-1-yl)acetamido)propanamide] fall in the same range of IC50: 300 to 1000 nM for the first, 300 to 1000 nM for the second.

`COc1ccc(N2CCN(CC(=O)N[C@@H](COCc3ccccc3)C(=O)Nc3ccc(Oc4ccc(F)cc4)cc3)CC2)cc1` [Compound 224, (S)-3-(benzyloxy)-N-(4-(4-fluorophenoxy)phenyl)-2-(2-(4-(4-methoxyphenyl)piperazin-1-yl)acetamido)propanamide] and `O=C(Nc1ccc(Oc2ccc(F)cc2)cc1)[C@@H]1C[C@@H](Cc2ccc(Cl)cc2)CN1C(=O)Cn1nccn1` [Compound 227, (2S,4R)-1-(2-(2H-1,2,3-triazol-2-yl)acetyl)-4-(4-chlorobenzyl)-N-(4-(4-fluorophenoxy)phenyl)pyrrolidine-2-carboxamide] cannot be ordered by IC50: 300 to 1000 nM for the first, at most 300 nM for the second.

`O=C(Nc1ccc(Oc2ccc(F)cc2)cc1)[C@@H]1C[C@@H](Cc2ccc(F)c(F)c2)CN1C(=O)Cn1ccnn1` [Compound 226, (2S,4R)-1-(2-(1H-1,2,3-triazol-1-yl)acetyl)-4-(3,4-difluorobenzyl)-N-(4-(4-fluorophenoxy)phenyl)pyrrolidine-2-carboxamide] and `O=C(Nc1ccc(Oc2ccc(F)cc2)cc1)[C@@H]1C[C@@H](Cc2ccc(Cl)cc2)CN1C(=O)Cn1ccnn1` [Compound 228, (2S,4R)-1-(2-(1H-1,2,3-triazol-1-yl)acetyl)-4-(4-chlorobenzyl)-N-(4-(4-fluorophenoxy)phenyl)pyrrolidine-2-carboxamide] cannot be ordered by IC50: at most 300 nM for the first, at most 300 nM for the second.
